The source made the active and inactive calls. The rule behind the calls is not given here. Where only a bound is given, the exact number is not on record here.

What is called IC50 is the point on the concentration scale where inhibition reaches its midpoint.

Assay [1] concerns the target Epidermal growth factor receptor (Homo sapiens, UniProt P00533, L858R/T790M). Description: Inhibition of GST-tagged human recombinant EGFR catalytic domain (668 to 1210 amino acids) T790M/L858R mutant expressed in Sf9 cells pre-incubated for 30 mins before ATP and substrate addition by homogeneous time-resolved FRET assay.
Assay [2] has as its target Epidermal growth factor receptor (Homo sapiens, UniProt P00533). In words: Inhibition of wild type N-terminal His6-tagged human EGFR kinase domain (702 to 1016 residues) expressed in Sf9 cells pre-incubated for 30 mins before ATP and substrate addition by homogeneous time-resolved FRET assay.
The target of assay [3] is Epidermal growth factor receptor (Homo sapiens, UniProt P00533, L858R). In words: Inhibition of GST-tagged human recombinant EGFR catalytic domain (668 to 1210 amino acids) L858R mutant expressed in Sf9 cells pre-incubated for 30 mins before ATP and substrate addition by homogeneous time-resolved FRET assay.
Assay [4] deals with Proto-oncogene tyrosine-protein kinase Src (Homo sapiens), P12931 [T341M,S348C]. In words: Induction of covalent modification of c-Src kinase domain (251 to 533 residues) T338M/S345C mutant (unknown origin) assessed as protein mass increase at 100 uM incubated for 1 hr by mass spectrometry method.
Assay [5] addresses Proto-oncogene tyrosine-protein kinase Src (Homo sapiens) (UniProt P12931). Description: Induction of covalent modification of wild type c-Src kinase domain (251 to 533 residues) (unknown origin) at 100 uM incubated for 1 hr by mass spectrometry method.
Assay [6] deals with Proto-oncogene tyrosine-protein kinase Src (Homo sapiens), P12931 [T341M,S348C]. In words: Induction of covalent modification of c-Src kinase domain (251 to 533 residues) T338M/S345C mutant (unknown origin) at 100 uM incubated for 1 hr by mass spectrometry method.

Sequence of Epidermal growth factor receptor (Homo sapiens, UniProt P00533) (P00533 whole entry, the tested form may be a part): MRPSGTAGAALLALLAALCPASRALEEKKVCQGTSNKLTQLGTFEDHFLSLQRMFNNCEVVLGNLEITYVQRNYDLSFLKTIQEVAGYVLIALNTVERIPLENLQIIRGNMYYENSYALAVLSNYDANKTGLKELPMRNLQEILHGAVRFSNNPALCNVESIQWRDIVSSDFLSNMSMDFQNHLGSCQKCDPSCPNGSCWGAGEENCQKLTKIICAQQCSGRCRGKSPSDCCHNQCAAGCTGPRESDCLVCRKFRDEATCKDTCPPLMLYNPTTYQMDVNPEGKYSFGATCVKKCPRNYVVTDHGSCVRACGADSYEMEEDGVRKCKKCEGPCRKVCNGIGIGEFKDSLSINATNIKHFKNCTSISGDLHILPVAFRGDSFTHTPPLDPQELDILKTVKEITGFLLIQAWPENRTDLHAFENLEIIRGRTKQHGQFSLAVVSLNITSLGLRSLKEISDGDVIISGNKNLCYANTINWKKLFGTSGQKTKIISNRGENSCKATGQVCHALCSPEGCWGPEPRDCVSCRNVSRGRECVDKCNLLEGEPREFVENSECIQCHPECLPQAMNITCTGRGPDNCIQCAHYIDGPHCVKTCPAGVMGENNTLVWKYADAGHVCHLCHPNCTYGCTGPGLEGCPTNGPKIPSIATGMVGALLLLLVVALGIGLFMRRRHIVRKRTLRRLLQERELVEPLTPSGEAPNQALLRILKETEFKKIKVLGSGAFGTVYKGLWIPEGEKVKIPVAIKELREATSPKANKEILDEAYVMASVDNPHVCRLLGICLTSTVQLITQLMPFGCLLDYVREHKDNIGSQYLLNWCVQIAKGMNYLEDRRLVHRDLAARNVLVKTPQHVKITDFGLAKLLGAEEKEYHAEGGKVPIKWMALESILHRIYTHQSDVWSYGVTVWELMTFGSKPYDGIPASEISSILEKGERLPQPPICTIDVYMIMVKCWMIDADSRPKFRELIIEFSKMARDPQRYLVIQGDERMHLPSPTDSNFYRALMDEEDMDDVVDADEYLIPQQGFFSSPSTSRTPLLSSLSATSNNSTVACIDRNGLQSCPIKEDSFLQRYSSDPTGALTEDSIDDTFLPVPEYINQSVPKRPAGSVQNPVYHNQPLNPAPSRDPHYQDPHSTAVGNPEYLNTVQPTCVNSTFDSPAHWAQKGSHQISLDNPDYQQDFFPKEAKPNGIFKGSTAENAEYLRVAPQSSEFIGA
Sequence of Epidermal growth factor receptor (Homo sapiens, UniProt P00533, L858R/T790M) (P00533 25-1210 T790M/L858R limits assumed): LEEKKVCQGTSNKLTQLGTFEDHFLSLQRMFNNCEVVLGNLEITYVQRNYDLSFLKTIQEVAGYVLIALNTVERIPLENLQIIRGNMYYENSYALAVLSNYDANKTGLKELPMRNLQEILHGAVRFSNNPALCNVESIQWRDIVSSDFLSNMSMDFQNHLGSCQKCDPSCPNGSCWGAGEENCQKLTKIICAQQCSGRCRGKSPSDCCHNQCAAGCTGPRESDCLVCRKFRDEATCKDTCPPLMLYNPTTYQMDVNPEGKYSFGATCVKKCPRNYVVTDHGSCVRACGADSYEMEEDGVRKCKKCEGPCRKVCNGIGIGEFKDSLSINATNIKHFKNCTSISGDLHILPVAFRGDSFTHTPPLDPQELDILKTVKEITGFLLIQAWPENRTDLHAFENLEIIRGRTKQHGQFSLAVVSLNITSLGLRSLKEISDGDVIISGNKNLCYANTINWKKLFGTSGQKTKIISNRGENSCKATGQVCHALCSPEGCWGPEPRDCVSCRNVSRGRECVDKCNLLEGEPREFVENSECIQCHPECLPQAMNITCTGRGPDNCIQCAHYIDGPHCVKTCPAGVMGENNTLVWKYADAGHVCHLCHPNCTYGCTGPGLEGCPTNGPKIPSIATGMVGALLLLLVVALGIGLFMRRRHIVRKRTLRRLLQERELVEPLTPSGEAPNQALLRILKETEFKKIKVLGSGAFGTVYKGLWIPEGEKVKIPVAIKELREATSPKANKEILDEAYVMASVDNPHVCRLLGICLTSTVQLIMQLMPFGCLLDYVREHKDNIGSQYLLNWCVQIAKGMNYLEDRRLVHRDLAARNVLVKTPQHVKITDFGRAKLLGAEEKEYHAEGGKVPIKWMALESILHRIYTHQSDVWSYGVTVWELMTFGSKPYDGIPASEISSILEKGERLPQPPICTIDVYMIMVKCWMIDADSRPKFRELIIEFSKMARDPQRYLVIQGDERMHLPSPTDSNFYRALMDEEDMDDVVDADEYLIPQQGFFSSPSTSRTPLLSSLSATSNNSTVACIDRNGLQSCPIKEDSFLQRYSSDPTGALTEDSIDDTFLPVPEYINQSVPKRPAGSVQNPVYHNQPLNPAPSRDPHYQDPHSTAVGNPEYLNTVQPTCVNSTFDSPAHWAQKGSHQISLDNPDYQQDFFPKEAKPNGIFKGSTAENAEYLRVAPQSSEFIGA
Sequence of Epidermal growth factor receptor (Homo sapiens, UniProt P00533, L858R) (P00533 25-1210 L858R limits assumed): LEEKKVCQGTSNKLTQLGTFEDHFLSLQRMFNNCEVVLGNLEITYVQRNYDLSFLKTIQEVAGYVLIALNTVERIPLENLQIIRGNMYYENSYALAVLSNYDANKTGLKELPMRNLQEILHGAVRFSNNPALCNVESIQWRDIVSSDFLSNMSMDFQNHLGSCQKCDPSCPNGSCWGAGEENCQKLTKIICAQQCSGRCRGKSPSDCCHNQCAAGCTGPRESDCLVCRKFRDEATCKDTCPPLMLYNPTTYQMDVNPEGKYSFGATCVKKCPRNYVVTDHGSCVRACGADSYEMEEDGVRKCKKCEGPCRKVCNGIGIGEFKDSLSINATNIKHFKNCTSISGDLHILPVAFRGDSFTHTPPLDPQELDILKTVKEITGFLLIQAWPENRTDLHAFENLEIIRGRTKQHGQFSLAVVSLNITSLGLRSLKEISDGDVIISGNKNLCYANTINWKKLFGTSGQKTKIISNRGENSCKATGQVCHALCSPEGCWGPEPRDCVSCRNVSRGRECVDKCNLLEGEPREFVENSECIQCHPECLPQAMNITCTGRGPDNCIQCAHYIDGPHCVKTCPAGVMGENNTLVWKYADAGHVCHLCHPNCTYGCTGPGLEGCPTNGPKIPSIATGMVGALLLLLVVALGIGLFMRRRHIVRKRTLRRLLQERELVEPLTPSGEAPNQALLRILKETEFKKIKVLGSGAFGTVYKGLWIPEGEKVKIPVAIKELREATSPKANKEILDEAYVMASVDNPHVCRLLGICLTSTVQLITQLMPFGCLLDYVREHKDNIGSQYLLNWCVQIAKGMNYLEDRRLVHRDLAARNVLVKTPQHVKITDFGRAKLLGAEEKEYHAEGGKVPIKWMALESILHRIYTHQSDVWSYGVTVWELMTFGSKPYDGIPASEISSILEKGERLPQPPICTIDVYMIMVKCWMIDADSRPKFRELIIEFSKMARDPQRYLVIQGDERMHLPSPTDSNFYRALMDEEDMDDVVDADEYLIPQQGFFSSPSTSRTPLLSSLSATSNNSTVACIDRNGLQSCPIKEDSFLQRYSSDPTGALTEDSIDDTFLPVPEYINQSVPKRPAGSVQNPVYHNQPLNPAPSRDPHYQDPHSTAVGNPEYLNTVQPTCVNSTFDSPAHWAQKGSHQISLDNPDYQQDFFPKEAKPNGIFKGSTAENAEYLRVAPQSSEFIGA

`COc1cc(N2CCN(C)CC2)ccc1Nc1ncc(Cl)c(Oc2cccc(NC(=O)/C(C#N)=C/c3ccc([N+](=O)[O-])cc3)c2)n1`: the IC50 was 1200 nM in assay [1], greater than 10000 nM in assay [2] and 2300 nM in assay [3].

As for `COc1cc(N2CCN(C)CC2)ccc1Nc1ncc(Cl)c(Oc2cccc(NC(=O)/C(C#N)=C/C(C)(C)C)c2)n1`, the IC50 was 400 nM in assay [1], greater than 10000 nM in assay [2] and 1300 nM in assay [3].

For the molecule `COc1cc(N2CCN(C)CC2)ccc1Nc1ncc(Cl)c(Oc2cccc(NC(=O)/C(C#N)=C/c3cccc([N+](=O)[O-])c3)c2)n1`, the IC50 in assay [1] is 720 nM; in assay [2], greater than 10000 nM; in assay [3], 1800 nM.

As to `COc1cc(N2CCN(C)CC2)ccc1Nc1ncc(Cl)c(Oc2cccc(NC(=O)/C(C#N)=C/c3ccc(N(C)C)cc3)c2)n1`, the IC50 in assay [1], in assay [2] and in assay [3] was greater than 10000 nM in each case.

Regarding `COc1cc(N2CCN(C)CC2)ccc1Nc1ncc(Cl)c(Oc2cccc(NC(=O)/C(C#N)=C/c3ccco3)c2)n1`, the IC50 in assay [1] is 330 nM; in assay [2] it was greater than 10000 nM; in assay [3], 1300 nM.

Take `COc1cc(N2CCN(C)CC2)ccc1Nc1ncc(Cl)c(Oc2cccc(NC(=O)/C(=C/c3ccc(F)cc3)C(F)(F)F)c2)n1`: the IC50 in assay [1] is 6300 nM; in assay [2], greater than 10000 nM; in assay [3], greater than 10000 nM.

Consider `COc1cc(N2CCN(C)CC2)ccc1Nc1ncc(Cl)c(Oc2cccc(NC(=O)/C=C/C3CC3)c2)n1`, for which the IC50 was found to be 830 nM in assay [1], 5600 nM in assay [2] and 2800 nM in assay [3]. The Activity in assay [4] was determined as 537 Da.

On to `COc1cc(N2CCN(C)CC2)ccc1Nc1ncc(Cl)c(Oc2cccc(NC(=O)/C(C#N)=C/C3CCCC3)c2)n1`, for which the IC50 was 1200 nM in assay [1], greater than 10000 nM in assay [2] and 2200 nM in assay [3].

With `COc1cc(N2CCN(C)CC2)ccc1Nc1ncc(Cl)c(Oc2cccc(NC(=O)/C(C#N)=C/c3ccncc3)c2)n1`, the IC50 in assay [1] was 37 nM; in assay [2] it was 8700 nM; in assay [3] it was 150 nM.

`COc1cc(N2CCN(C)CC2)ccc1Nc1ncc(Cl)c(Oc2cccc(NC(=O)CCC3CC3)c2)n1`: the values for the IC50 in assay [1], in assay [2] and in assay [3] were 770 nM, greater than 10000 nM and 2000 nM, respectively. Moreover, the result in assay [5] and in assay [6] was inactive.

As to `COc1cc(N2CCN(C)CC2)ccc1Nc1ncc(Cl)c(Oc2cccc(NC(=O)/C(C#N)=C/c3ccc(SC)cc3)c2)n1`, the IC50 in assay [1] amounted to 510 nM; in assay [2], 4800 nM; in assay [3], 830 nM.

Take `COc1cc(N2CCN(C)CC2)ccc1Nc1ncc(Cl)c(Oc2cccc(NC(=O)/C(C#N)=C/C3CC3)c2)n1`: the Activity in assay [4] stood at 560 Da. Besides, in assay [5], the outcome was Active.

On to `COc1cc(N2CCN(C)CC2)ccc1Nc1ncc(Cl)c(Oc2cccc(NC(=O)/C(C#N)=C/C(C)C)c2)n1`, for which the figures for the IC50 in assay [1], in assay [2] and in assay [3] were 800 nM, greater than 10000 nM and 1200 nM, respectively.

In the case of `COc1cc(N2CCN(C)CC2)ccc1Nc1ncc(Cl)c(Oc2cccc(NC(=O)/C(C#N)=C/c3ccc(C#N)cc3)c2)n1`, the concentration for half-maximal inhibition (IC50) is 940 nM in assay [1], greater than 10000 nM in assay [2] and 1800 nM in assay [3].

As to `COc1cc(N2CCN(C)CC2)ccc1Nc1ncc(Cl)c(Oc2cccc(NC(=O)/C(=C/c3ccc(N(C)C)cc3)C(F)(F)F)c2)n1`, the IC50 was 2200 nM in assay [1], greater than 10000 nM in assay [2] and 6300 nM in assay [3].

Turning to `COc1cc(N2CCN(C)CC2)ccc1Nc1ncc(Cl)c(Oc2cccc(NC(C)=O)c2)n1`, the results for the IC50 in assay [1], in assay [2] and in assay [3] were 180 nM, greater than 10000 nM and 490 nM, respectively.

With `COc1cc(N2CCN(C)CC2)ccc1Nc1ncc(Cl)c(Oc2cccc(NC(=O)/C(C#N)=C/c3ccc(F)cc3)c2)n1`, the IC50 worked out at 120 nM in assay [1], 7000 nM in assay [2] and 540 nM in assay [3].

Source of the values: ChEMBL document CHEMBL3425413, “Structure-based design and synthesis of covalent-reversible inhibitors to overcome drug resistance in EGFR” (Bioorg Med Chem, 2015).
